The values below come from patent US9511143B2, “Aqueous compositions comprising arbekacin” (Meiji Seika Pharma Co., Ltd., priority 2011, dated 2016).

One data set concerns P. aeruginosa MSC17707. Put plainly: Experimental pneumonia caused by Pseudomonas aeruginosa in neutropenic mice, inhalation therapy. In kind it is in vivo. The conditions noted are these: for viable cell counts in the lung in comparison to the non-treatment control group: all the dose levels; for Number of intrapulmonary viable cells: 5 min inhalation 2 h after infection, count 20 h after infection, neutropenic mice, mean ± SD. How it is done:
The therapeutic effect of arbekacin inhalation on experimental pneumonia in neutropenic mice, caused by P. aeruginosa, was compared with the therapeutic effect of amikacin and tobramycin.
Cyclophosphamide (Sigma-Aldrich Co.) was dissolved in physiological saline. Four to five week-old Crlj:CD1(ICR) male mice were immunosuppressed by intraperitoneal injection of 150 and 100 mg/kg of cyclophosphamide solution 4 days and 1 day before infection, respectively. Thereafter, pulmonary infection was induced by intranasal inoculation of amikacin- and tobramycin-resistant P. aeruginosa having the aac(6)-lae encoding an aminoglycoside modifying enzyme. The antibiotics dissolved in saline were administered to each mouse using an electronic vibrating membrane nebulizer (eFlow®, PARI Pharma GmbH, spray flow rate: approximately 0.5 ml/min) two hours after the infection, and viable cells per lung were counted 20 hours after the infection. As for the doses of arbekacin, three levels were set at 3, 10 and 30 mg/ml, and the respective doses of amikacin and tobramycin were at three levels of 10, 30, and 100 mg/ml. The inhalation duration was five minutes. Meanwhile, physiological saline was administered to a non-treatment control group.

Another data set concerns guinea pigs. Further details: species or system guinea pig (male Hartley strain). The conditions noted are these: guinea pig, in vivo. The protocol: A guinea-pig cough induction model was used to investigate differences in cough induction between the sulfate and hydrochloride forms of arbekacin. The tested substances were commercially available arbekacin sulfate (ABK—H2SO4) and arbekacin hydrochloride (ABK—HCl) that was prepared from arbekacin free base according to the method described in Example 2. The concentration of dosing solutions was set to be 25 mg/ml. In addition, physiological saline was used as a negative control agent whereas citric acid (30 mg/ml) was used as a positive control agent.
Male Hartley strain guinea pigs were subjected to the experiment, with 10 animals per group. […] Cough was detected on the basis of the following indicators: observation of symptoms, analysis of a respiration pattern in the soma-side by a double-flow plethysmograph method using a multi-functional respiration measuring device (Win Pulmos-I, M-I-P-S Corporation), and pressure changes in head-side and soma-side chambers measured by a pressure transducer (blood pressure monitoring kit, Japan Becton, Dickinson and Company). The case, in which a motion of coughing in the symptom observation was noted together with typical changes in the pressure in the head-side and soma-side chambers and in the respiration pattern of the soma side at the time of coughing, was determined to be a cough reflex. […] Then, the occurrence of cough reflex was counted. […]

`NC[C@H]1O[C@H](O[C@H]2[C@H](O)[C@@H](O[C@H]3O[C@H](CO)[C@@H](O)[C@H](N)[C@H]3O)[C@H](N)C[C@@H]2N)[C@H](N)C[C@@H]1O` [Tobramycin, tobramycin]: the “viable cell counts in the lung in comparison to the non-treatment control group” value in the data set with P. aeruginosa MSC17707 is reported as “significantly decreased”. In addition, the “Number of intrapulmonary viable cells” value in the data set on P. aeruginosa MSC17707 (level of drug 10 mg/ml) is given as 5.74 ± 1.57 log10 CFU/lung; in the data set on P. aeruginosa MSC17707 (level of drug 30 mg/ml), 3.48 ± 1.85 log10 CFU/lung; in the data set on P. aeruginosa MSC17707 (level of drug 100 mg/ml) it was 3.53 ± 1.88 log10 CFU/lung.

As to `NCC[C@H](O)C(=O)N[C@@H]1C[C@H](N)[C@@H](O[C@H]2O[C@H](CN)CC[C@H]2N)[C@H](O)[C@H]1O[C@H]1O[C@H](CO)[C@@H](O)[C@H](N)[C@H]1O` [Arbekacin, arbekacin], the “viable cell counts in the lung in comparison to the non-treatment control group” value in the data set on P. aeruginosa MSC17707 was “significantly decreased”. Besides, the “Number of intrapulmonary viable cells” value with P. aeruginosa MSC17707 (level of drug 3 mg/ml) is listed as 4.07 ± 2.18 log10 CFU/lung; with P. aeruginosa MSC17707 (level of drug 10 mg/ml), 2.20 ± 0.99 log10 CFU/lung; with P. aeruginosa MSC17707 (level of drug 30 mg/ml), 1.98 ± 0.83 log10 CFU/lung. Besides, in the data set on P. aeruginosa MSC17707 (same dosage (10 or 30 mg/ml)), the “therapeutic effect compared to amikacin and tobramycin” value is given as “significantly superior”.

Consider `NCC[C@H](O)C(=O)N[C@@H]1C[C@H](N)[C@@H](O[C@H]2O[C@H](CN)[C@@H](O)[C@H](O)[C@H]2O)[C@H](O)[C@H]1O[C@H]1O[C@H](CO)[C@@H](O)[C@H](N)[C@H]1O` [Amikacin, amikacin], for which, in the data set with P. aeruginosa MSC17707, the “viable cell counts in the lung in comparison to the non-treatment control group” value is reported as “significantly decreased”. Besides, the “Number of intrapulmonary viable cells” value in the data set on P. aeruginosa MSC17707 (level of drug 10 mg/ml) is reported as 5.65 ± 1.55 log10 CFU/lung; in the data set on P. aeruginosa MSC17707 (level of drug 30 mg/ml), 4.46 ± 1.68 log10 CFU/lung; in the data set on P. aeruginosa MSC17707 (level of drug 100 mg/ml) it was 2.65 ± 1.74 log10 CFU/lung.

Regarding `O=C(O)CC(O)(CC(=O)O)C(=O)O` [Citric Acid, citric acid], the “number of occurrence of cough reflex / cough induction, comparison between groups” value with guinea pigs is listed as “significantly higher”.
